ChEMBL document CHEMBL1146649, “New highly active taxoids from 9 beta-dihydrobaccatin-9,10-acetals. Part 5” (2004)
Values after ≈ are worked out from the molar mass of the structure shown.

Key:
Mus musculus [1] = assay: Effective dose of intravenously administered compound against B16 melanoma BL6 cells implanted into mice; range is 7.8-11.9; format: functional; conditions: B16, iv
Mus musculus [2] = assay: Number of mice died at 5.3 mg/kg of intravenous dose of compound among the total 6 mice tested; format: functional
Mus musculus [3] = assay: Number of mice died at 17.8 mg/kg of peroral dose among the total 6 mice tested; format: functional; conditions: route oral
B16 [4] = assay: Antitumor activity of 17.8 mg/kg of perorally administered compound against B16 melanoma BL6 cells implanted into mice, value reported is percent compared to control; format: functional, Mus musculus; conditions: route oral
B16 [5] = assay: Antitumor activity of 11.9 mg/kg of perorally administered compound against B16 melanoma BL6 cells implanted into mice, value reported is percent compared to control; format: functional, Mus musculus; conditions: route oral
Mus musculus [6] = assay: Number of mice died at 7.8 mg/kg of intravenous dose of compound among the total 6 mice tested; format: functional
PC-6 [7] = assay: Concentration required to inhibit human PC-6/VP1-1 cell line growth by 50% at 72 hr exposure; format: functional; conditions: PC-6, 72 h
Mus musculus [8] = assay: Number of mice died at 17.8 mg/kg of intravenous dose among the total 6 mice tested; format: functional
Mus musculus [9] = assay: Antitumor activity of 7.9 mg/kg of perorally administered compound against B16 melanoma BL6 cells implanted into mice, value reported is percent compared to control; format: functional; conditions: route oral
Mus musculus [10] = assay: Number of mice died at 11.9 mg/kg of intravenous dose, among the total 6 mice tested; format: functional
Mus musculus [11] = assay: Effective dose of perorally administered compound against B16 melanoma BL6 cells implanted into mice; range is 11.9-17.8; format: functional; conditions: B16, po
Mus musculus [12] = assay: Number of mice died at 7.9 mg/kg of peroral dose of compound among the total 6 mice tested; format: functional; conditions: route oral
Mus musculus [13] = assay: Number of mice died at 26.7 mg/kg of peroral dose of compound among the total 6 mice tested; format: functional; conditions: route oral
Mus musculus [14] = assay: Maximum rate of body weight loss after intravenous administration of 7.8 mg/kg of compound in mice; format: functional
Mus musculus [15] = assay: Maximum rate of body weight loss after peroral administration of 7.9 mg/kg of compound in mice; <0 indicates no weight loss; format: functional; conditions: route oral
Mus musculus [16] = assay: Antitumor activity of 5.3 mg/kg of intravenously administered compound against B16 melanoma BL6 cells implanted into mice, value reported is percent compared to control; format: functional; conditions: route intravenous
Mus musculus [17] = assay: Number of mice died at 11.9 mg/kg of peroral dose, among the total 6 mice tested; format: functional; conditions: route oral
Mus musculus [18] = assay: Antitumor activity of 7.8 mg/kg of intravenously administered compound against B16 melanoma BL6 cells implanted into mice, value reported is percent compared to control; format: functional; conditions: route intravenous
Mus musculus [19] = assay: Maximum rate of body weight loss after peroral administration of 11.9 mg/kg of compound in mice; format: functional; conditions: route oral
Mus musculus [20] = assay: Maximum rate of body weight loss after intravenous administration of 5.3 mg/kg of compound in mice; <0 indicates no weight loss; format: functional
PC-6 [21] = assay: Concentration required to inhibit human PC-6 cell line growth by 50% at 72 hr continuous exposure; format: functional; conditions: PC-6, 72 h
Mus musculus [22] = assay: Maximum rate of body weight loss after intravenous administration of 11.9 mg/kg of compound in mice; format: functional
Mus musculus [23] = assay: Maximum rate of body weight loss after peroral administration of 17.8 mg/kg of compound in mice; format: functional; conditions: route oral
PC-6 [24] = assay: Concentration required to inhibit human PC-6/VCR29-9 cell line growth by 50% at 72 hr exposure; format: functional; conditions: PC-6, 72 h
B16 [25] = assay: Antitumor activity of 11.9 mg/kg of intravenously administered compound against B16 melanoma BL6 cells implanted into mice, value reported is percent compared to control; format: functional, Mus musculus; conditions: route intravenous
PC-12 = assay: Concentration required to inhibit human PC-12 cell line growth by 50% at 72 hr continuous exposure; format: functional; conditions: PC-12, 72 h
P388 = assay: Concentration required to inhibit mouse P388 cell line growth by 50% at 72 hr continuous exposure; format: functional; conditions: P388, 72 h
Mus musculus [26] = assay: Maximum rate of body weight loss after intravenous administration of 8.0 mg/kg of compound in mice; <0 indicates no body weight loss; format: functional
Mus musculus [27] = assay: Antitumor activity of 8.0 mg/kg of perorally administered compound against B16 melanoma BL6 cells implanted into mice, value reported is percent compared to control; format: functional; conditions: route oral
Mus musculus [28] = assay: Maximum rate of body weight loss after peroral administration of 18.0 mg/kg of compound in mice; format: functional; conditions: route oral
Mus musculus [29] = assay: Number of mice died at 18.0 mg/kg of intravenous dose of compound among the total 6 mice tested; format: functional
Mus musculus [30] = assay: Maximum rate of body weight loss after peroral administration of 27.0 mg/kg of compound in mice; format: functional; conditions: route oral
Mus musculus [31] = assay: Number of mice died at 8.0 mg/kg of intravenous dose of compound among the total 6 mice tested; format: functional
Mus musculus [32] = assay: Number of mice died at 12.0 mg/kg of intravenous dose of compound among the total 6 mice tested; format: functional
Mus musculus [33] = assay: Maximum rate of body weight loss after intravenous administration of 5.3 mg/kg of compound in mice; <0 indicates no body weight loss; format: functional
Mus musculus [34] = assay: Number of mice died at 18.0 mg/kg of peroral dose of compound among the total 6 mice tested; format: functional; conditions: route oral
Mus musculus [35] = assay: Antitumor activity of 27.0 mg/kg of perorally administered compound against B16 melanoma BL6 cells implanted into mice, value reported is percent compared to control; format: functional; conditions: route oral
Mus musculus [36] = assay: Antitumor activity of 18.0 mg/kg of perorally administered compound against B16 melanoma BL6 cells implanted into mice, value reported is percent compared to control; format: functional; conditions: route oral
Mus musculus [37] = assay: Effective dose of intravenously administered compound against B16 melanoma BL6 cells implanted into mice; range is 5.3-18.0; format: functional; conditions: B16, iv
Mus musculus [38] = assay: Number of mice died at 8.0 mg/kg of peroral dose of compound among the total 6 mice tested; format: functional; conditions: route oral
Mus musculus [39] = assay: Antitumor activity of 12.0 mg/kg of intravenously administered compound against B16 melanoma BL6 cells implanted into mice, value reported is percent compared to control; format: functional; conditions: route intravenous
Mus musculus [40] = assay: Antitumor activity of 18.0 mg/kg of intravenously administered compound against B16 melanoma BL6 cells implanted into mice, value reported is percent compared to control; format: functional; conditions: route intravenous
Mus musculus [41] = assay: Maximum rate of body weight loss after peroral administration of 8.0 mg/kg of compound in mice; <0 indicates no body weight loss; format: functional; conditions: route oral
Mus musculus [42] = assay: Number of mice died at 27.0 mg/kg of peroral dose of compound among the total 6 mice tested; format: functional; conditions: route oral
Mus musculus [43] = assay: Effective dose of perorally administered compound against B16 melanoma BL6 cells implanted into mice; range is 12.0-27.0; format: functional; conditions: B16, po
Mus musculus [44] = assay: Antitumor activity of 12.0 mg/kg of perorally administered compound against B16 melanoma BL6 cells implanted into mice, value reported is percent compared to control; format: functional; conditions: route oral
Mus musculus [45] = assay: Number of mice died at 12.0 mg/kg of peroral dose of compound among the total 6 mice tested; format: functional; conditions: route oral
Mus musculus [46] = assay: Maximum rate of body weight loss after intravenous administration of 12.0 mg/kg of compound in mice; <0 indicates no body weight loss; format: functional
Mus musculus [47] = assay: Maximum rate of body weight loss after intravenous administration of 18.0 mg/kg of compound in mice; format: functional
Mus musculus [48] = assay: Antitumor activity of 8.0 mg/kg of intravenously administered compound against B16 melanoma BL6 cells implanted into mice, value reported is percent compared to control; format: functional; conditions: route intravenous
Mus musculus [49] = assay: Maximum rate of body weight loss after peroral administration of 12.0 mg/kg of compound in mice; <0 indicates no body weight loss; format: functional; conditions: route oral

With `CC(=O)O[C@@]12CO[C@@H]1CC[C@@]1(C)[C@@H]3O[C@H](CN4CCOCC4)O[C@@H]3C3=C(C)[C@@H](OC(=O)[C@H](O)[C@@H](NC(=O)OC(C)(C)C)C(C)(C)C)C[C@@](O)([C@@H](OCc4ccccc4)[C@@H]12)C3(C)C` the ED50 (Mus musculus [1]) was 11.9 mg/kg, the Mortality (Mus musculus [2]) was 0 and the Mortality (Mus musculus [3]) was 0. The IR (B16 [4]) was 90.3%, the IR (B16 [5]) was 63.4% and the Mortality (Mus musculus [6]) was 0. It also gave a GI50 (PC-6 [7]) of 5.56 ng/mL (≈ 6.38 nM), a Mortality (Mus musculus [8]) of 6 and an IR (Mus musculus [9]) of 25.5%. The Mortality (Mus musculus [10]) was 0, the ED50 (Mus musculus [11]) was 17.8 mg/kg and the Mortality (Mus musculus [12]) was 0. For the same compound, the Mortality (Mus musculus [13]) was 6, the BWLmax (Mus musculus [14]) was less than 1.2% and the BWLmax (Mus musculus [15]) was less than 0%. The IR (Mus musculus [16]) was 28.6%, the Mortality (Mus musculus [17]) was 0 and the IR (Mus musculus [18]) was 71.9%. For the same compound, the BWLmax (Mus musculus [19]) was 0.4%, the BWLmax (Mus musculus [20]) was less than 0% and the GI50 (PC-6 [21]) was 0.7 ng/mL (≈ 0.804 nM). For the same compound, the BWLmax (Mus musculus [22]) was 10.5%, the BWLmax (Mus musculus [23]) was 11.7% and the GI50 (PC-6 [24]) was 0.85 ng/mL (≈ 0.976 nM). The IR (B16 [25]) was 93.8%, the GI50 (PC-12) was 0.13 ng/mL (≈ 0.149 nM) and the GI50 (P388) was 0.34 ng/mL (≈ 0.39 nM).

`CC(=O)O[C@@]12CO[C@@H]1C[C@H](O)[C@@]1(C)[C@@H]3OC(CN4CCOCC4)O[C@@H]3C3=C(C)[C@@H](OC(=O)[C@H](O)[C@@H](NC(=O)OC(C)(C)C)c4ccccn4)C[C@@](O)([C@@H](OCc4ccccc4)[C@H]21)C3(C)C` (stereo partly drawn) was tested, and the BWLmax (Mus musculus [26]) was less than 0%, the IR (Mus musculus [27]) was 27.2% and the BWLmax (Mus musculus [28]) was 0.3%. For the same compound, the Mortality (Mus musculus [29]) was 0, the BWLmax (Mus musculus [30]) was 4.5% and the Mortality (Mus musculus [31]) was 0. It also gave a Mortality (Mus musculus [2]) of 0, a Mortality (Mus musculus [32]) of 0 and a GI50 (PC-6 [7]) of 19.3 ng/mL (≈ 21.3 nM). The BWLmax (Mus musculus [33]) was less than 0%, the Mortality (Mus musculus [34]) was 0 and the IR (Mus musculus [35]) was 97.3%. The IR (Mus musculus [36]) was 93.3%, the IR (Mus musculus [16]) was 62.4% and the ED50 (Mus musculus [37]) was 18 mg/kg. It also gave a Mortality (Mus musculus [38]) of 0, an IR (Mus musculus [39]) of 94.4% and an IR (Mus musculus [40]) of 95.6%. For the same compound, the GI50 (PC-6 [21]) was 0.26 ng/mL (≈ 0.286 nM), the BWLmax (Mus musculus [41]) was less than 0% and the Mortality (Mus musculus [42]) was 0. It also gave an ED50 (Mus musculus [43]) of 27 mg/kg, an IR (Mus musculus [44]) of 84.9% and a Mortality (Mus musculus [45]) of 0. It also gave a BWLmax (Mus musculus [46]) of less than 0%, a GI50 (PC-6 [24]) of 2.43 ng/mL (≈ 2.68 nM) and a BWLmax (Mus musculus [47]) of 3.7%. It also gave a GI50 (PC-12) of 0.13 ng/mL (≈ 0.143 nM), a GI50 (P388) of 0.18 ng/mL (≈ 0.198 nM) and an IR (Mus musculus [48]) of 87.2%. The BWLmax (Mus musculus [49]) was less than 0%.
